# Tested on: Pseudomonas aeruginosa (ATCC 10145)
# Assay: MIC by microbroth dilution and synergy index, Pseudomonas aeruginosa
# Type: cell-based
# Details: product level
# Method: MICs were determined via microbroth dilution using the following specific test parameters:
# Necessary organism dilutions via OD600 were calculated based on OD600 of 1.0 being equivalent to 8*10^8 CFU/mL. Biocide dilutions were performed in 2-fold increments for each assay.
# Synergy index (SI) scores were calculated according to the mass action equation below:
# S.I.=[MIC[A] in-blend/MIC[A] alone]+[MIC[B] in-blend/MIC[B] alone]
# Combinations of ingredients were determined to be synergistic (S.I.≤0.5), additive (S.I.>0.5 to 1), indifferent (S.I.>1 to <2) or antagonistic (S.I.≥2), as defined by EUCAST guidelines^1. 1 European Committee for Antimicrobial Susceptibility Testing (EUCAST) of the European Society of Clinical Microbiology and Infectious Diseases (ESCMID). EUCAST Definitive Document E.Def 1.2, May 2000: Terminology relating to methods for the determination of susceptibility of bacteria to antimicrobial agents. Clin. Microbiol. Infect. Off. Publ. Eur. Soc. Clin. Microbiol. Infect. Dis. 6, 503-508 (2000).
# MIC values for Mergal BIT20X (20% BIT), individual amines, and 1:1 mixtures of amines and Mergal BIT20X were determined against the test organism Pseudomonas aeruginosa (ATCC 10145) using 96-well microbroth dilution methodology.
# Synergy of Jeffamine T403 and Mergal BIT20X mixtures from 1:50 to 50:1 were tested against P. aeruginosa. Jeffamine T403 was diluted to 20% w/w before mixing with Mergal BIT20X at the indicated ratios. The results are plotted in FIG. 1. Jeffamine T403 and Mergal BIT20X are synergistic at ratios with excess T403. In FIG. 1, the x-axis indicates the fractional BIT level in the blend (1=100% BIT, 0=100% T403, 0.5=50% BIT, 50% T403, etc.), the left y-axis is the MIC against Pseudomonas aeruginosa (ATCC 10145), and the right y-axis is the calculated Synergy Index (SI). The dotted line indicates the synergy index cutoff as defined by EUCAST guidelines (SI<0.5). The MIC raw data is presented in Table 3; MIC values are reported on active concentration.
"MIC, Amine Only, Avg. [ppm]","MIC, Amine Only, Rep. 1 [ppm]","MIC, Amine Only, Rep.2 [ppm]",Compound
938,625,1250,NCCNCCNCCN [TETA]
2500,2500,2500,CC(CN)CCCN (stereo not drawn) [Dytek A]

# Source: patent US20220145092A1, “BIT COMPOSITIONS WITH SIGNIFICANTLY IMPROVED ACTIVITY” (Troy Technology II, Inc., priority 2020, published 2022)
